The source of these data is ChEMBL document CHEMBL3259669, “The discovery and SAR of cyclopenta[b]furans as inhibitors of CCR2” (Bioorg Med Chem Lett, 2014).

The nature of data set [1]: in vivo. Particulars: rat.
The conditions of data set [2]: buffer.
Data set [3] is described as follows: in vivo. The settings on record: rat, plasma.
The nature of data set [4]: in vivo. The settings on record: rat, po, 10 mg/kg.
For data set [5], the species on record is Rattus norvegicus. The settings on record: in vivo, iv, 2 mg/kg.
Data set [6] is described as follows: in vivo. The settings on record: rat, po, 10 mg/kg. This is another data set of the same source.
For data set [7], the system named is Plasma. The data set is described as follows: Plasma concentration in thioglycolate-induced peritoneal leukocyte infiltration in human CCR2 knock-in mouse model at 1 mg/kg, po. The class given is ADME, organism-based. Set-up: dose 1 mg/kg, route oral. Particulars: in vivo.
The conditions of data set [8]: human, microsomes.
Data set [9] can be described thus: Plasma concentration in guinea pig at 10 mg/kg. Set-up: dose 10 mg/kg. The data set is classed as ADME, organism-based, Cavia porcellus. Particulars: in vivo.
The conditions of data set [10]: rat, microsomes.
Data set [11] can be described thus: in vivo. Particulars: rat, iv, 2 mg/kg.

In the case of `CO[C@@H]1COCC[C@@H]1N[C@@H]1C[C@H]2OCC[C@@]2(C(=O)N2CCc3ncc(C(F)(F)F)cc3C2)C1`, the half-life (commonly the time needed for the level to fall by half in the phase considered) in data set [1] was 3.8 h. For the same compound, the solubility result in data set [2] is recorded as “soluble”. In [3], the AUC(0-t) – broadly, exposure summed from dosing to a finite time, without extrapolation to infinity – turned out to be 9760 ng·h/mL. In addition, in [4], the bioavailability (usually dose-corrected exposure relative to a reference, in per cent) was 94%. Moreover, in [5], the CL is reported as 15.6 mL/mg/kg. Further, the highest concentration (Cmax) (usually the highest concentration seen after dosing) in data set [6] is 2200 ng/mL. The concentration in data set [7] was 0.097 µM; in data set [9] it was 23 µM. The Stability result in [8] and in [10] was “Stable” each time. Besides, in [11], the Vd (commonly the apparent volume that relates the amount in the body to the concentration in plasma or blood) is 3.2 L/kg.

The compound `CO[C@H]1COCC[C@H]1N[C@@H]1C[C@H]2OCC[C@@]2(C(=O)N2CCc3ncc(C(F)(F)F)cc3C2)C1` gave a half-life in data set [1] of 3.5 h. Besides, the solubility result in data set [2] was “soluble”. In [3], this compound gave an AUC(0-t) of 3540 ng·h/mL. For the same compound, the bioavailability in [4] was 91%. Besides, the CL in [5] is reported as 43.2 mL/mg/kg. In data set [6], this compound registered a Cmax of 632 ng/mL. Further, the concentration came to 0.098 µM in data set [7] and 18 µM in [9]. For the same compound, the Stability entry in data set [8] and in data set [10] was “Stable” in each case. The same compound had a Vd in data set [11] of 5 L/kg.
